The values that follow come from PMC9112550, “Optimization of the antimicrobial peptide Bac7 by deep mutational scanning” (BMC Biology, 2022).

One data set relates to E. coli ribosomes. Particulars: S30 extract E. coli ATCC 25922; firefly luciferase mRNA; 800 to 0.08 μM; 1 h, 37°C; n = 9; p = 0.15, Wilcoxon, not significant.
Another data set deals with E. coli ATCC 25922. The format is cell-based. Particulars: E. coli ATCC 25922 quality control strain; MHB II; 18 h, 37°C; averaged (n>3). As for the experimental part: (§1) Bacterial cells were grown in cation-adjusted Mueller Hinton Broth (MHB II) overnight to stationary phase. The cultures were then supplemented with 200 g l^−1 glycerol, aliquoted, and frozen at −80°C. […] The purified peptides were thawed and the concentration was determined by RP-HPLC as described before. The peptides were diluted with sterile water to 4-fold the desired assays starting concentration and to a final volume of 50 μl. […] The first well of each MIC dilution series was filled with 20 μl of 2-fold concentrated MHB II, wells 2–11 with 20 μl of MHB II, and well 12 with 40 μl MHB II (sterility control). Next, 20 μl of the peptide dilution was added to the first well, mixed, and a log2-serial dilution was performed from wells 1 to 10 (20 μl transfer volume). Well 11 served as growth control (i.e., no peptide added). In the last step, 20 μl of the bacterial cell suspension was added to wells 1–11 either using the pipetting robot (E. coli TOP10, BW25113, BW25113 ΔsbmA, and ATCC 25922) or by manual pipetting (E. coli clinical isolates). The plates were sealed airtight and incubated for 18 h without shaking at 37°C before reading the OD using an Infinite 200 PRO plate reader (Tecan, Männedorf, CH). The MIC value corresponded to the concentration at which no growth of the bacterial strain was observed (< 5% of the OD value of the growth control) and was evaluated using a custom-written script in the programming language R. MIC values of E. coli TOP10, BW25113, BW25113 ΔsbmA, and ATCC 25922 were determined at least in biological triplicates. All MIC experiments were determined in technical replicate.

The next data set concerns E. coli BW25113 ΔsbmA. The format is cell-based. Particulars: MHB II, 18 h, 37°C, averaged (n>3). On the procedure: as §1
Another data set relates to E. coli BW25113. The format is cell-based. Particulars: E. coli BW25113 parental strain; MHB II; 18 h, 37°C; averaged (n>3). On the procedure: as §1
For data set [1], the system named is E. coli clinical isolates. In kind it is cell-based. Particulars: clinical isolates of E. coli (n=45) including MDR (ESBL, CRE); MHB II; 18 h, 37°C. As for the experimental part:
as §1

The subject of another data set is E. coli TOP10. The format is cell-based. As for the experimental part:
as §1

The next data set relates to CD-1 mice. Description: Maximum tolerated dose / in vivo toxicity. On the set-up: species or system mouse. As for the experimental part:
CD-1 mice (7 weeks old, 27–28 g female) were used (Charles River, France). These animals were housed for a week of acclimation period before the experiment in a protected area in the ‘Centre de Zootechnie de l’Université de Bourgogne’ (Biosafety level 2 facility) and fed ad libitum according to the current recommendations by the European Institute of Health. Housing took place in rooms where a 12-h/12 h light/dark cycle is applied, the temperature ranges from 18 to 21°C and the relative humidity from 45 to 65%. The animal facility is authorized by the French authorities (Agreement N° C 21 464 04 EA). […]
For animal experiments, Bac7PS was synthesized at Genscript as acetate salt and with a purity of 92%. […] First, the maximum tolerated dose (MTD) for the peptide was determined by testing different peptide doses in 8 groups with 5 animals per group. The peptide solution was administered once by intraperitoneal (IP) injection with a volume of between 94 and 240 μl (depending on the weight of the animal and the dosage) and the animals were monitored for 2 h following the injection, then 6 to 8 h later, and then once or twice a day, depending on the clinical status, up to 5 days post-injection. […] As endpoint, the wellbeing and survival rate, on a twice daily based evaluation for up to 3 days, was monitored.

Entries after “also recorded” stand apart in the source; their conditions may differ. Where no end group is shown, it is not given here.

Method for E. coli ribosomes: To measure inhibition of the E. coli ATCC 29522 ribosome, an S30 extract from E. coli cells was purified. E. coli ATCC 25922 was grown in 2 l of liquid LB medium at 37°C and 160 rpm. Cells were harvested in the logarithmic phase by centrifugation for 30 min at 3500 × g at 4°C. The cell pellet was washed with ice-cold S30 buffer (20 mM Tris-acetate pH 8.2, 60 mM potassium acetate, 14 mM magnesium acetate, and 3 mM β-mercaptoethanol) and pelleted again for 30 min at 3500 × g at 4°C. The resulting cell pellet was shock-frozen in liquid nitrogen and stored at −80°C until further processing. Frozen E. coli cells were thawed on ice and resuspended in four times their volume ice-cold S30 buffer. The resulting cell suspension was lysed by passing it twice through a microfluidizer processor (Microfluidics, Westwood, MA, USA) at 25,000 lb/in^2 and the cell lysate was immediately amended with DTT to a final concentration of 1 mM. The lysate was then centrifuged twice for 30 min at 30,000 × g at 4°C. After each centrifugation cycle, the clear supernatant was carefully decanted and the pellet discarded. Aliquots of S30 extract were shock-frozen in liquid nitrogen and stored at −80°C.
Sealed plates were incubated for 1 h at 37°C and stopped on ice before adding 75 μl of luciferase assay reagent (Promega) to each reaction. […]

As for RRIRIRPPRLPRPRPRPYFMPRP [Bac7PS], the “mean increase of activity on E. coli ribosomes (translation inhibition IC50) compared to Bac7_1-23” value in the data set with E. coli ribosomes is listed as 10%. Besides, the MIC is 2.6 µM in the data set on E. coli ATCC 25922; 14.4 µM in the data set on E. coli BW25113 ΔsbmA; 3.6 µM in the data set on E. coli BW25113; 2.1 µM against E. coli TOP10 (MHB II, 18 h, 37°C, averaged (n>3), <5% of OD of growth control). In data set [1], this sequence registered an MIC50 of 2.9 µM. Moreover, the “reduction of the MIC vs Bac7_1-23” value in the data set on E. coli TOP10 was “approximately twofold”. Besides, the “tolerability of a second administration” value in the data set on CD-1 mice (40 mg kg^−1 IP, repeated 4 h after first dosing) is given as “does not influence the survival of mice; also recorded: tolerated”. In the data set with CD-1 mice (intraperitoneal, 3 days, single administration, 5 animals per group), the “maximal dose at which all CD-1 mice survived” value was found to be 50 mg/kg.

A word on the MIC: it is the lowest concentration found to suppress growth. As usually defined, the MIC50 is an inhibitory concentration at the 50% level, which refers to growth in some studies and to a panel of isolates in others. A low value points to higher susceptibility.
